Tested on: HCT-116 RAD21-mAC cells
Test: 3D-APA of higher-order Hi-C contacts between cohesin-independent loop anchors
Format: cell-based, human
Conditions: auxin-treated data, 131 intrachromosomal trios; none in untreated
Description: To probe this question, Applicants examined concatemers—that is, Hi-C reads which bring together 3 or more loci, and indicate that the loci in question were simultaneously co-located in a particular cell during the Hi-C experiment. Applicants identified 57 million unique “triples,” which bring together 3 loci; 32 million unique quadruples, and 130 thousand quintuples (FIG. 5B, see Methods). Instead of a 2-dimensional heatmap, concatemers are naturally represented as an n-dimensional matrix, or tensor, showing the collision frequency (i.e. the frequency of simultaneous physical contact) between any set of n loci in the genome (FIG. 5C). Hubs involving n loci manifest in the n-dimensional contact tensor as peaks in collision frequency with respect to the local n-dimensional neighborhood. […]
Analysis of higher order contacts. […] The Juicer pipeline (Durand, et al, 2016b) separately outputs abnormal chimeric read pairs (i.e. read pairs that map to more than 2 loci). Applicants combined all of the data from untreated RAD21-mAC cells and all our data from treated RAD21-mAC cells (unsynchronized and synchronized/arrested), parsed the chimeric abnormal reads and deduped them (using the same deduping procedure used in Juicer, only applied to three, four or five positions, rather than just two), retaining unique reads that mapped to three or more positions with MAPQ>=10. […]

Compound: O=C(O)Cc1c[nH]c2ccccc12 [auxin, indole-3-acetic acid]
- collisions in the center voxel of the 3D APA cube (three cohesin-independent loop anchors): 11
